# Experimental data as given in patent US8569007B2, “Method for reducing the appearance of false positive bands in SDS-page analysis of proteolytic digestion of a sample” (Merck Sharp & Dohme Corp., priority 2006, dated 2013).
# Test system: thiol-protease
# Conditions: 100 μM E-64; anti-IGF1R antibody substrate; overnight at room temperature; reducing SDS-PAGE (FIG. 5)
# Procedure: Gels containing 4-20% polyacryamide were used for reducing SDS-PAGE. Recipes for buffers were as follows: • 1.5M Tris pH 8.8: Dissolve 90.73 g Tris base in 400 ml DI H2O. pH to 8.8 with Hydrochloric Acid. Bring to volume of 500 ml with DI H2O, Store at 4° C. (This is one of the components used to make pH 8.8 Sample Buffer—below) • pH 8.8 Sample Buffer: Combine the following: 228 ml of DI H2O, 50 ml Glycerol, 50 ml 1.5M Tris pH 8.8, 50 ml 10% SDS solution, and 10 ml 0.05% Bromophenol Blue. Store at 4° C. • 2× Reducing Sample Buffer: Prepare 3% by volume 2-Mercaptoethanol in pH 8.8 Sample Buffer. Prepare fresh prior to use.
# The buffers were combined with the samples in equal volumes and allowed to sit overnight at room temperature before boiling. This increases the sensitivity of the assay for protease activity. The samples were then boiled directly before submitting for SDS-PAGE.
# E-64 was dissolved in DMSO and EDTA was dissolved in sterile distilled water. Samples were allowed to incubate overnight at room temperature. Samples were then combined in equal parts with anti-IGF1R drug substance to yield a final concentration of 0.5 mg/ml antibody. Reducing buffer was added in equal parts to the samples containing antibody. Following overnight incubation, these samples were then loaded onto gels for reducing SDS-PAGE for a final load of 10-12 μg of antibody. […]
compound,measurement,value
"CC(C)C[C@H](NC(=O)[C@H]1O[C@@H]1C(=O)O)C(=O)NCCCCN=C(N)N (relative stereo) [E-64, trans-epoxy-succinyl-L-leucylamido-(4-guanidino)butane]",inhibition of active thiol-protease in 1615 CHO medium supplement,inhibited
